Measured values as given in patent US9492496B2, “Aminothiazoles and their uses” (Novartis AG, priority 2007, dated 2016).

system: prokaryotic transcription-translation (E. coli S30 extract); experiment: In vitro assay for inhibition of prokaryotic transcription-translation (Promega E. coli S30 Extract System, pBESTluc luciferase readout); format: biochemical; conditions: 2 uM compound, 2 h at 37° C., luciferase luminescence
Procedure: In vitro assay for inhibition of prokaryotic transcription-translation [as described in the following references: 1. Zubay, G. (1973) In vitro synthesis of protein in microbial systems. Annu. Rev. Genet. 7, 267.87. 2. Zubay, G. (1980) The isolation and properties of CAP, the catabolite gene activator. Meth. Enzymol. 65, 856.77]. Antibiotic and compound dilutions: stock solutions of compound to be assayed at 2 μM are 80 μM in 40% DMSO. Stock solutions of compounds to be assayed at 10 μM are 400 μM in 40% DMSO.
Assay setup and protocol for Promega E. coli S30 Extract System
The assay is performed as follows: pipet 3.5 μl of 286 ng/μl template DNA (pBESTluc™) into assay wells. Negative control wells receive sdH2O only. Transfer 0.5 μl of 40× compound stock solution to assay wells. Positive control wells (no compound) receive 0.5 μl 40% DMSO sdH2O. Pipet 16 μl of master mix into assay wells. Incubate plate for two hours at 37° C. Rapidly chill the assay plate on ice for five minutes to stop the reaction. Add an equal volume (20 μl) of room temperature Steady-Glo® Luciferase assay reagent to all assay wells. Incubate 20 minutes and read light emitted with luminometer. Results are reported as % inhibition a 2 μM or 10 μM.

SMILES | % inh. @ 2 uM
CNC(=O)C[C@@H]1NC(=O)c2csc(n2)-c2ccc(-c3nc(N(CCCCC(=O)O)C(=O)OCC(CCCCC(=O)O)CC(=O)O)cs3)nc2-c2csc(n2)-c2csc(n2)[C@H]([C@@H](O)c2ccccc2)NC(=O)CNC(=O)c2nc(sc2COC)C(C(C)C)NC(=O)c2nc1sc2C (stereo partly shown) [Compound 32] | 2 uM = 78.0%
CNC(=O)C[C@@H]1NC(=O)c2csc(n2)-c2ccc(-c3nc(NC(=O)OCCC(CCCCC(=O)O)C(=O)O)cs3)nc2-c2csc(n2)-c2csc(n2)[C@H]([C@@H](O)c2ccccc2)NC(=O)CNC(=O)c2nc(sc2COC)C(C(C)C)NC(=O)c2nc1sc2C (stereo partly shown) [Compound 35] | 2 uM = 87.0%
CNC(=O)C[C@@H]1NC(=O)c2csc(n2)-c2ccc(-c3nc(N(CCCCC(=O)O)C(=O)OCCC(CCCCC(=O)O)C(=O)O)cs3)nc2-c2csc(n2)-c2csc(n2)[C@H]([C@@H](O)c2ccccc2)NC(=O)CNC(=O)c2nc(sc2COC)C(C(C)C)NC(=O)c2nc1sc2C (stereo partly shown) [Compound 30] | 2 uM = 83.93%
CNC(=O)C[C@@H]1NC(=O)c2csc(n2)-c2ccc(-c3nc(N(CCCCC(=O)O)C(=O)OCC4CC4C(=O)O)cs3)nc2-c2csc(n2)-c2csc(n2)[C@H]([C@@H](O)c2ccccc2)NC(=O)CNC(=O)c2nc(sc2COC)C(C(C)C)NC(=O)c2nc1sc2C (stereo partly shown) [Compound 27] | 2 uM = 81.9%
CNC(=O)C[C@@H]1NC(=O)c2csc(n2)-c2ccc(-c3nc(N(CCCCCC(=O)O)C(=O)O[C@H]4CC[C@H](C(=O)O)CC4)cs3)nc2-c2csc(n2)-c2csc(n2)[C@H]([C@@H](O)c2ccccc2)NC(=O)CNC(=O)c2nc(sc2COC)C(C(C)C)NC(=O)c2nc1sc2C (stereo partly shown) [Compound 7] | 2 uM = 86.0%
CNC(=O)C[C@@H]1NC(=O)c2csc(n2)-c2ccc(-c3nc(N(CCCCC(=O)O)C(=O)O[C@]4(CCCCC(=O)O)CC[C@@H](C(=O)O)CC4)cs3)nc2-c2csc(n2)-c2csc(n2)[C@H]([C@@H](O)c2ccccc2)NC(=O)CNC(=O)c2nc(sc2COC)C(C(C)C)NC(=O)c2nc1sc2C (stereo partly shown) [Compound 34] | 2 uM = 63.1%
CNC(=O)C[C@@H]1NC(=O)c2csc(n2)-c2ccc(-c3nc(N(CCCCC(=O)O)C(=O)O[C@H]4CC[C@](CCCCC(=O)O)(C(=O)OC)CC4)cs3)nc2-c2csc(n2)-c2csc(n2)[C@H]([C@@H](O)c2ccccc2)NC(=O)CNC(=O)c2nc(sc2COC)C(C(C)C)NC(=O)c2nc1sc2C (stereo partly shown) [Compound 25] | 2 uM = 83.7%
CNC(=O)C[C@@H]1NC(=O)c2csc(n2)-c2ccc(-c3nc(N(CC(CC(=O)O)OC)C(=O)O[C@H]4CC[C@H](C(=O)O)CC4)cs3)nc2-c2csc(n2)-c2csc(n2)[C@H]([C@@H](O)c2ccccc2)NC(=O)CNC(=O)c2nc(sc2COC)C(C(C)C)NC(=O)c2nc1sc2C (stereo partly shown) [Compound 20] | 2 uM = 80.6%
CNC(=O)C[C@@H]1NC(=O)c2csc(n2)-c2ccc(-c3nc(N(CCCCC(=O)O)C(=O)O[C@H]4CC[C@H](C(=O)O)C[C@@H]4CCCCC(=O)O)cs3)nc2-c2csc(n2)-c2csc(n2)[C@H]([C@@H](O)c2ccccc2)NC(=O)CNC(=O)c2nc(sc2COC)C(C(C)C)NC(=O)c2nc1sc2C (stereo partly shown) [Compound 29] | 2 uM = 79.6%
CNC(=O)C[C@@H]1NC(=O)c2csc(n2)-c2ccc(-c3nc(N(CCCC(=O)O)C(=O)OCCCC(=O)O)cs3)nc2-c2csc(n2)-c2csc(n2)[C@H]([C@@H](O)c2ccccc2)NC(=O)CNC(=O)c2nc(sc2COC)C(C(C)C)NC(=O)c2nc1sc2C (stereo partly shown) [Compound 3] | 2 uM = 67.8%
CNC(=O)C[C@@H]1NC(=O)c2csc(n2)-c2ccc(-c3nc(N(CCCCC(=O)O)C(=O)[C@H]4CC[C@H]4C(=O)O)cs3)nc2-c2csc(n2)-c2csc(n2)[C@H]([C@@H](O)c2ccccc2)NC(=O)CNC(=O)c2nc(sc2COC)C(C(C)C)NC(=O)c2nc1sc2C (stereo partly shown) [Compound 10] | 2 uM = 2.0%
CNC(=O)C[C@@H]1NC(=O)c2csc(n2)-c2ccc(-c3nc(N(CCOCC(=O)O)C(=O)O[C@H]4CC[C@H](C(=O)O)CC4)cs3)nc2-c2csc(n2)-c2csc(n2)[C@H]([C@@H](O)c2ccccc2)NC(=O)CNC(=O)c2nc(sc2COC)C(C(C)C)NC(=O)c2nc1sc2C (stereo partly shown) [Compound 24] | 2 uM = 70.3%
CNC(=O)C[C@@H]1NC(=O)c2csc(n2)-c2ccc(-c3nc(N(C/C=C/C(=O)O)C(=O)O[C@H]4CC[C@H](C(=O)O)CC4)cs3)nc2-c2csc(n2)-c2csc(n2)[C@H]([C@@H](O)c2ccccc2)NC(=O)CNC(=O)c2nc(sc2COC)C(C(C)C)NC(=O)c2nc1sc2C (stereo partly shown) [Compound 19] | 2 uM = 76.4%
